# Reference: ChEMBL document CHEMBL1201862, “PubChem BioAssay data set” (2004)
# Active and inactive are the calls of the source.
# What was measured:
# [1] = inhibitors of HIV Env-driven cell fusion, dose response, cherry-pick (AID 652057); format: functional, cell-based
# [2] = CEM21 lymphoblast cell cytotoxicity, dose response, cytotoxicity control for viral fusion inhibitor project, CellTiter-Glo luminescence, cherry-picked (AID 652042); format: functional, cell-based;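 also: potency for signal decrease meaning cytotoxicity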
# [3] = ZM109 Env clade C HIV-1 fusion inhibitors, dose response, HeLa effector, CEM target cells, luciferase, cherry-pick (AID 652058); format: functional, cell-based
# [4] = off-target signal loss in HeLa-CEM21 co-culture – HeLa F-luc CTL cells, cherry-picked, counter-screen for HIV-1 Env fusion inhibitor project, dose response (AID 652040); format: functional, cell-based;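 also: potency for signal decrease marking cytotoxic or nonspecific inhibition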
# [5] = inhibitors of clade B AD8 Env fusion, dose response, cell-based, cherry-pick (AID 652062); format: functional;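 also: luciferase signal from cell-cell fusion driven by HIV-1 clade B AD8 Env; potency is for inhibitors of fusion seen as a drop in luminescence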
# [6] = NIH-3T3 fibroblast cytotoxicity, dose response, cytotoxicity control, cell-based, fluorescence, Alamar Blue, secondary assay (AID 2327); format: functional;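 also: NIH-3T3 mouse fibroblasts cultured with fluconazole at 8 µg/mL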
# [7] = C. albicans growth with fluconazole, confirmation, fluorescence, retest (AID 2467); format: functional, cell-based
# [8] = molecular target: T1, Serine/threonine-protein phosphatase (Candida dubliniensis (strain CD36 / CBS 7987 / NCPF 3949 / NRRLY-17841) (Yeast), UniProt B9W6M3); assay: calcineurin pathway inhibitors in yeast reporter, dose response, S. cerevisiae, CDRE-lacZ, luminescence, secondary (AID 2388); format: functional, cell-based;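 also: yeast reporter cells carrying a calcineurin-responsive lacZ construct stimulated with calcium chloride; luminescent beta-galactosidase reporter signal in whole cells rather than isolated phosphatase activity; potency for inhibition where a drop in reporter signal means calcineurin blockade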
# T1 sequence (B9W6M3 whole entry): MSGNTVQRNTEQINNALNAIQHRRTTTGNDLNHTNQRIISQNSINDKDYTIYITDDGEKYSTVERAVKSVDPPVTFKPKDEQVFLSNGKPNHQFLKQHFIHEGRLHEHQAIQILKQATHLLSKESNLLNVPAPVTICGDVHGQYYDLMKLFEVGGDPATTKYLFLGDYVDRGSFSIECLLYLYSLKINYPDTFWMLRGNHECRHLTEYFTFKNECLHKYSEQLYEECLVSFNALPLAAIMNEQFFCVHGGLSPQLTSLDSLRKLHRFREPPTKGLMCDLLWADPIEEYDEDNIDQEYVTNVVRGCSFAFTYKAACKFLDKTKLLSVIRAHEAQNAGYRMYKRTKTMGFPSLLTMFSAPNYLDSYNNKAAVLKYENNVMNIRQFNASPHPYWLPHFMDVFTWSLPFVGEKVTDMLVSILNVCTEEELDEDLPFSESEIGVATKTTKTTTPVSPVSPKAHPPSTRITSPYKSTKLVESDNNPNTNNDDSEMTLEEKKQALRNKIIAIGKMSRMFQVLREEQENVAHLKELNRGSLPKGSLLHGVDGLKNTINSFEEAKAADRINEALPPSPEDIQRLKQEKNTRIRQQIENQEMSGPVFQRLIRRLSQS
# [9] = molecular target: ATP-dependent molecular chaperone HSP82 (Candida albicans (strain WO-1) (Yeast), UniProt C4YTQ8); assay: loss of DOC-induced GRE-beta-galactosidase reporter signal, dose response, Hsp90 inhibitor project, S. cerevisiae, luminescence (AID 2400); format: functional, cell-based;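 also: beta-galactosidase luminescence from glucocorticoid response element reporter as proxy for Hsp90 function; inhibitor potency where signal loss means Hsp90 inhibition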
# [10] = molecular target: T2, Apoptotic protease-activating factor 1 (Homo sapiens, UniProt O14727); assay: SAR analysis of small molecule Activators of Apaf-1 in a Fluorescent assay.; format: functional; settings: read-out: EC50_Mean;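 also: caspase-3 cleavage of fluorogenic Rh110 DEVD substrate downstream of apoptosome activation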
# T2 sequence (O14727 whole entry): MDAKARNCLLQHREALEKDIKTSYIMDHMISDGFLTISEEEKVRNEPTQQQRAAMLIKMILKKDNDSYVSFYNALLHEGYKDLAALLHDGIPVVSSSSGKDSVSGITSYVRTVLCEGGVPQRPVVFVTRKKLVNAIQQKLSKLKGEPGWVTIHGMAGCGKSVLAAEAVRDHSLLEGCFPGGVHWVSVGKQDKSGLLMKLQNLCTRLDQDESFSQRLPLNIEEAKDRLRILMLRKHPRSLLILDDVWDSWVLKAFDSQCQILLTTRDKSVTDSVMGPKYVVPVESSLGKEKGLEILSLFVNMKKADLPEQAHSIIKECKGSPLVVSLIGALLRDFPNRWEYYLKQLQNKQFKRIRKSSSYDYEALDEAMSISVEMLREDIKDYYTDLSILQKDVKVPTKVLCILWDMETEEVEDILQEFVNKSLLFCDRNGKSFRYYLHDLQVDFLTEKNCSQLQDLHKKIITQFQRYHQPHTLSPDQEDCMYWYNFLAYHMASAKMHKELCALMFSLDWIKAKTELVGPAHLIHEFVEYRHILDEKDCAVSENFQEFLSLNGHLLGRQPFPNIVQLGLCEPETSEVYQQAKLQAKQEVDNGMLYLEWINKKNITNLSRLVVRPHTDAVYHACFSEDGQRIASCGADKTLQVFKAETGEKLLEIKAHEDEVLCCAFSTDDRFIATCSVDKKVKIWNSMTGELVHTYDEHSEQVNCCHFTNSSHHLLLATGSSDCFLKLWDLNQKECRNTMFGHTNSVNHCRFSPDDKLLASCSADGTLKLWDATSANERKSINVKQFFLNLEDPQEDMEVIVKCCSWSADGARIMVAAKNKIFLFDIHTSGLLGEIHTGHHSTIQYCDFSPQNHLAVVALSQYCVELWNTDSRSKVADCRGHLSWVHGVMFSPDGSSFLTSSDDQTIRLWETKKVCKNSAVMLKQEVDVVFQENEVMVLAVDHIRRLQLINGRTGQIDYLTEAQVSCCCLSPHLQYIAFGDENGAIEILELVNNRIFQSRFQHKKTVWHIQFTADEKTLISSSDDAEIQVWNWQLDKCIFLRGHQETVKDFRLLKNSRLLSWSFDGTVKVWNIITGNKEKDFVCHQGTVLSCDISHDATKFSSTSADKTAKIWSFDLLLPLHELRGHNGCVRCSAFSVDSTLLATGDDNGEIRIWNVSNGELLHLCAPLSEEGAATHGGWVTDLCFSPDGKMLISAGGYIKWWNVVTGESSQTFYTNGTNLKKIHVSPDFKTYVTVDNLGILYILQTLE
# [11] = molecular target: T3, Sentrin-specific protease 8 (Homo sapiens, UniProt Q96LD8); format: functional
# T3 sequence (Q96LD8 whole entry): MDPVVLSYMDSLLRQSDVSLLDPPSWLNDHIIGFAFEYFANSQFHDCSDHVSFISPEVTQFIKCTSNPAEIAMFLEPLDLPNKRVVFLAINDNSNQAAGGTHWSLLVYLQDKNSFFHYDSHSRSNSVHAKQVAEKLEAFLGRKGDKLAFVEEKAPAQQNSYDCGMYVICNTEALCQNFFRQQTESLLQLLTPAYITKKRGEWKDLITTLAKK
# [12] = molecular target: T3, Sentrin-specific protease 8; format: functional; remark: listed apart in the source
# [13] = non-specific cell cytotoxicity, dose response, cytotoxicity control for PAX8 inhibitor project, plate reader, dry powder samples (AID 743021); format: functional, cell-based
# H9c2 = assay: cells; format: functional, cell-based; settings: Rattus norvegicus, H9c2, Myocardium;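 also: confirmatory concentration-response retest of ultra-high-throughput screening hits for modulation of myocardial damage; cell death induced by hydrogen peroxide oxidative stress; compound pretreatment for 60 min then peroxide exposure for 2 h; potency is for protecting the cells against peroxide damage rather than for killing them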
# [14] = molecular target: 26S proteasome non-ATPase regulatory subunit 14 (Homo sapiens, UniProt O00487); assay: inhibition of proteasome subunit RPN11 – biochemical, fluorescence polarization, uHTS hits, confirmation (AID 602368); format: functional
# [15] = molecular target: 72 kDa type IV collagenase (Homo sapiens, UniProt P08253); assay: Dose Response validation of uHTS RPN11 inhibitor hits using a MMP-2 Fluorescence assay.; format: functional
# Prothrombin = Prothrombin (Bos taurus, UniProt P00735); assay: thrombin inhibition, dose response, biochemical, fluorescence polarization, uHTS hits (AID 602369); format: functional
# [16] = molecular target: T4, Small ubiquitin-related modifier 1 (Homo sapiens, UniProt P63165); assay: inhibitors of SUMO1 peptide binding, dose response, biochemical, fluorescence polarization, uHTS hits (AID 624382); format: functional; settings: read-out: IC50_Mean
# [17] = molecular target: T4, Small ubiquitin-related modifier 1; assay: inhibitors of SUMO1 partner interactions, dose response, biochemical, FRET (AID 624383); format: functional; settings: read-out: IC50_Mean
# T4 sequence (P63165 whole entry): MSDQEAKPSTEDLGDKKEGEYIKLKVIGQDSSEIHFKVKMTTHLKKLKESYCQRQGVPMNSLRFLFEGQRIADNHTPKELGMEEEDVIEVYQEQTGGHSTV
# 26S proteasome non-ATPase regulatory subunit 14, sequence (O00487 whole entry): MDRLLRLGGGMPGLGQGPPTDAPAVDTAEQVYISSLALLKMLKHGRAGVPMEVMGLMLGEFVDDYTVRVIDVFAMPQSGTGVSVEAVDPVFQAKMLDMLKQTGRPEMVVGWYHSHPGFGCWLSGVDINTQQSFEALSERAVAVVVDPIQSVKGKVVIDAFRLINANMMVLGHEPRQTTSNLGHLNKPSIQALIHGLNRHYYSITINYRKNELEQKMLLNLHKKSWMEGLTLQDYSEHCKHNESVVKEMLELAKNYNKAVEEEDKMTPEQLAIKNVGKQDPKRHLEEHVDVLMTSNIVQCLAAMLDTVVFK
# ATP-dependent molecular chaperone HSP82, sequence (C4YTQ8 whole entry): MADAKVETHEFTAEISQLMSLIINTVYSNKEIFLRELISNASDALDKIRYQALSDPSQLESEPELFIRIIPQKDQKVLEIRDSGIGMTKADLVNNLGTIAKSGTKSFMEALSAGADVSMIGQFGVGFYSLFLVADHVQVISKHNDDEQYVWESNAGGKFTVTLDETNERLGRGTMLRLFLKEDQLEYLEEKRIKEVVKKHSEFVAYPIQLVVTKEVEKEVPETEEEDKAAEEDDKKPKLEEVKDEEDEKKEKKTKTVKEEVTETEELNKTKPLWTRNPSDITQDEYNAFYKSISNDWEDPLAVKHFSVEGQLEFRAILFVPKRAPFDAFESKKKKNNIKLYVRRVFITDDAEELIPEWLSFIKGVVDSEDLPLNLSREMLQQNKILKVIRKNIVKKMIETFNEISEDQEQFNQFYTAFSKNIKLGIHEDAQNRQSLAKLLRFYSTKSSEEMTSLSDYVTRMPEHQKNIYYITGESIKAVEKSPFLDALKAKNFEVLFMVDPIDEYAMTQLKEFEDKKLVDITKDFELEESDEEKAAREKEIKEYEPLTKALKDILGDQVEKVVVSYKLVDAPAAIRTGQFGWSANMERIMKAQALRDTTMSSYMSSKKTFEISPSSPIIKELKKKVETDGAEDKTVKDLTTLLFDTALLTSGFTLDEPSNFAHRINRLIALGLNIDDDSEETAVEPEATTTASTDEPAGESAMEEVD
# 72 kDa type IV collagenase, sequence (P08253 whole entry): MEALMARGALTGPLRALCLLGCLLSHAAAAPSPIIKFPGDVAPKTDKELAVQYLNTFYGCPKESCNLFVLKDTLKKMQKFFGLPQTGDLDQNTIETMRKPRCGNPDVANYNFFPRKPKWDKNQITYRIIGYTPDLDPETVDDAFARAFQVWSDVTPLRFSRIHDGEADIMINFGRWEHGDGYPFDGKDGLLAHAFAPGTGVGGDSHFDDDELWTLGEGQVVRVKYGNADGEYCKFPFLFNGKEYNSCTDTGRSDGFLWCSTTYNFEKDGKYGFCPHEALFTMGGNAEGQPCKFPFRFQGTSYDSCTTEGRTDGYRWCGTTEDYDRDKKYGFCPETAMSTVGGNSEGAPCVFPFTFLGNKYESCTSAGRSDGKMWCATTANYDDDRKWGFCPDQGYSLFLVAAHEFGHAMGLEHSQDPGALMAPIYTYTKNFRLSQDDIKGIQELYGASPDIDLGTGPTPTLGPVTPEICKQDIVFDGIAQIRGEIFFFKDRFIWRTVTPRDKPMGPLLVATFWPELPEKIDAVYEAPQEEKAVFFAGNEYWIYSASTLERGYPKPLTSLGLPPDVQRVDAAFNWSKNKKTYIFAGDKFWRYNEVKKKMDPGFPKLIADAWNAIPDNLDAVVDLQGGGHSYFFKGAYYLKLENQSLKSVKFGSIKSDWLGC
smiles,measurement,setting,value
O=C(c1cccc(C(F)(F)F)c1)N1CCc2c([nH]c3ccccc23)C1C(F)(F)F (centres undefined),AC50,[1],5.55 µM (active)
same,AC50,[2],50.8 µM (active)
same,AC50,[3],0.66 µM (active)
same,AC50,[4],1.88 µM (active)
same,AC50,[5],1.19 µM (active)
O=C(Nc1nnc(-c2ccco2)o1)c1cccc(Cl)c1,EC50,[6],> 150 µM (inactive)
same,EC50,[7],1.33 µM (active)
same,EC50,[8],> 180 µM (inactive)
same,EC50,[9],> 150 µM (inactive)
CCOC(=O)C1(C)Oc2ccccc2NC1=O (centres undefined),EC50,[10],> 100 µM (inactive)
CC(=O)Nc1ccc(NC(=O)COC(=O)c2ccc([N+](=O)[O-])o2)cc1,IC50,[11],7.03 µM (active)
same,IC50,[12],11.8 µM (active)
C[C@@H]1CCCCO[C@H](CN(C)C)[C@H](C)CN([C@@H](C)CO)C(=O)c2cc(NS(=O)(=O)c3ccc(Cl)cc3)ccc2O1,AC50,[13],1.71 µM (active)
COc1cc(/C=N/NC(=O)c2cccnc2)ccc1OCC(=O)Nc1ccccc1Cl,IC50,H9c2,> 79 µM (inactive)
same,IC50,[14],47 µM (active)
same,IC50,[15],> 100 µM (inactive)
same,IC50,Prothrombin,> 100 µM (inactive)
same,IC50,[16],> 66.6 µM (inactive)
same,IC50,[17],100 µM (inactive)
